Consider five compounds from the NIST ThermoML archive (doi:10.1016/j.fluid.2013.08.041).

± gives the expanded uncertainty stated by the source.

The conditions of the series: Liquid; for Critical pressure: Direct measurement; for Normal boiling temperature: Ebulliometric method (Recirculating still); for Critical temperature: Visual observation in a stirred cell.

With `Cc1cc(C)c2ccccc2c1` [1,3-dimethylnaphthalene], the Critical pressure was found to be 2740 ± 160 kPa, the Normal boiling temperature was 265.1 ± 0.2 °C and the Critical temperature is 772 ± 16 K.
Take `Cc1ccc(C)c2ccccc12` [1,4-dimethylnaphthalene]: the Critical pressure is recorded as 2790 ± 160 kPa, the Normal boiling temperature was determined as 265.1 ± 0.2 °C and the Critical temperature is 778 ± 16 K.
In the same order, the values of `Cc1ccc2ccccc2c1` [2-methylnaphthalene] are 3300 ± 200 kPa, 241.1 ± 0.2 °C and 755 ± 16 K.
In the same order, the values of `Cc1cccc2ccccc12` [1-methylnaphthalene] are 3540 ± 220 kPa, 244.6 ± 0.2 °C and 773 ± 16 K.
In the same order, the values of `CCc1ccc2ccccc2c1` [2-ethylnaphthalene] are 2790 ± 160 kPa, 254.1 ± 0.2 °C and 763 ± 16 K.
